Columns and labels:
cv. Early Sweet vines [1] = test: Bud break on whole vines, greenhouse in Argaman, Jordan Valley; assay type: in vivo, Vitis vinifera; conditions: Example 21, FIGS. 23A, 23B; 6% DADS alone (DADS 6% control); natural bud break about 25-45%
cv. Early Sweet vines [2] = test: Bud break on whole vines in a vineyard, Jordan Valley (spur pruning, hot winter); assay type: in vivo, Vitis vinifera; conditions: Example 2, FIG. 2, negative control Triton, positive control 5% HC
[3] = tested on: corms, tubers and apple buds; conditions: cited from earlier work
[4] = tested on: Vitis vinifera cv. Early Sweet single-node cuttings; test: Bud break on grapevine single-node cuttings in growth chamber; assay type: in vivo
[5] = tested on: grapevine buds (cuttings, whole vine); conditions: cited from earlier work
[6] = tested on: berries of cv. Early Sweet vines; test: TSS (sugar) level of berries of treated vines; assay type: in vivo, Vitis vinifera; conditions: Example 3, FIG. 4; 6% DADS with 2% Armobreak®; Brix meter; versus control and HC
whole vines in vineyards = test: Overall bud break in vineyards, summary over the examples; assay type: in vivo, grapevine; conditions: spur pruned vineyard in region with higher chilling (FIG. 19, Example 17)

For `C=CCSSCC=C` [DADS, diallyl disulfide], the bud break (cv. Early Sweet vines [1]) was “results within the range of the natural bud break”, the bud break (cv. Early Sweet vines [2]; 2% DADS with 0.02% Triton X-100) was “no effect” and the bud break (cv. Early Sweet vines [2]; 4% DADS with 0.02% Triton X-100) was “slight enhancement in bud break in comparison to the negative control”. For the same compound, the bud break [3] was “enhanced bud break of corms, tubers and apple buds”, the bud break ([4]; Example 1, FIG. 1, 1% DADS sprayed with 0.02% Triton X-100, compared with 0.1%, 5% and 10% DADS) was “best result” and the bud break ([4]; Example 1, FIG. 1, 5% DADS sprayed with 0.02% Triton X-100, control 0.02% Triton X-100 only, 22° C., monitored to day 28) was “toxic and actually inhibit bud break”. For the same compound, the bud break ([4]; Example 1, FIG. 1, 10% DADS sprayed with 0.02% Triton X-100, control 0.02% Triton X-100 only, monitored to day 28) was “toxic and actually inhibit bud break”, the “bud break enhancing effect” value ([5]; applied to the whole vine, rather than to cuttings) was “very limited and inferior to the known HC” and the “grapevine bud break enhancement among garlic volatile compounds” value ([5]; volatile compounds containing sulfur and allyl groups) was “particularly effective”. The “TSS levels of the berries (ripening)” value [6] was “increase the total soluble solids (TSS) level of the berries in comparison to the control”.

For `C=CCSCC=C` [DAS, Diallyl Sulfide], the bud break ([4]; Example 5, FIG. 7, higher concentrations of DAS (0.1%, 1%, 5% tested) with 2% Armobreak®, control 2% Armobreak®) was “may reduce bud breaking” and the bud break ([4]; Example 5, FIG. 7, relatively low concentrations of DAS (0.1%, 1%, 5% tested) with 2% Armobreak®, control 2% Armobreak®) was “enhance bud breaking in grapevine cuttings”.

With `N#CN` [HC, hydrogen cyanamide] the bud break (whole vines in vineyards) was “a milder effect or no effect”.

— patent publication US11213027B2, “Combined administration of a penetration agent and a sulfur containing compound to plants” (THE STATE OF ISRAEL, MINISTRY OF AGRICULTURE & RURAL …, priority 2016, dated 2022)
